The target of series [1] is T1, rEg-DHFR (Echinococcus granulosus, UniProt U6JJS2).
T1 sequence (U6JJS2 1-191): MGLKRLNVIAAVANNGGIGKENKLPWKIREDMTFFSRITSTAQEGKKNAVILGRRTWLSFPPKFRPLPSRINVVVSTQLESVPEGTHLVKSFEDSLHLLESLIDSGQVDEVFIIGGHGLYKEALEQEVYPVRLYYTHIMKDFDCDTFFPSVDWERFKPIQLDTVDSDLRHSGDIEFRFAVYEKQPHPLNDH
Put plainly: Inhibition of rEg-DHFR enzyme activity by antifolates (DHFR assay kit, absorbance 340 nm). The series is classed as biochemical. As to the method:
The temperature was controlled at 22 °C.
The IC50 was calculated using GraphPad Prism software by nonlinear curve-fitting.

The test system of series [2] is E. granulosus protoscoleces (PSCs). The series can be described thus: microbe, parasite or virus in culture. It is filed as cell-based, Echinococcus granulosus. Particulars: for effect on PSCs (protoscolex viability): all three concentrations tested. On the procedure: Cysts of E. granulosus were obtained from a slaughterhouse in Qinghai Province, China. The PSCs were separated in sterile conditions and washed three times in phosphate-buffered saline (PBS). Rinsed PSCs were diluted to a concentration of 1,500 mL^−1 and maintained as previously described, [47]. Briefly, PSCs were cultured in RPMI 1640 medium (Hyclone) with 10% fetal bovine serum (Hyclone), 10% hydatid fluid, 100 U.mL^−1 penicillin G and 100 μg.mL^−1 streptomycin (Sigma, USA). Adult worms were collected from the small intestine of a 2-month-old dog 35 days post-infection with 20,000 PSCs. A 5-month-old dog and two 9-week-old female New Zealand white rabbits were obtained from the Laboratory Animal Center of Sichuan Agricultural University. All animals were provided with food pellets and sterilised water ad libitum.
[…]. PSCs incubated with only assay buffer (DHFR assay kit; Sigma) or DMSO were used as negative controls. The vitality of protoscoleces was assessed using a Trypan Blue exclusion test[50], [51]. The daily percentages of PSCs vitality were calculated on six microscopic fields covering approximately 10–20 PSCs. The effect of per drug concentration was monitored in triplicate and in two separate trials.

The target in series [3] is T1, rEg-DHFR. The series can be described thus: Enzyme kinetics of rEg-DHFR towards substrate DHF (Michaelis-Menten fit). The series is classed as biochemical. The conditions noted are these: 0-120 μM DHF, 60 μM NADPH, 22 °C.
Series [4] concerns E. granulosus protoscoleces (PSCs). Further details: method as in PMID 11133110. Particulars: positive control; ref [30]; cited from earlier work.
Substrate in series [5]: Nc1nc2c(c(=O)[nH]1)N=C(CNc1ccc(C(=O)N[C@@H](CCC(=O)O)C(=O)O)cc1)CN2
The series can be described thus: purified protein, by the assay type. Particulars: other: 0-120 μM DHF, 60 μM NADPH, 22 °C.

[6] abbreviates: 50 μM dihydrofolic acid, 60 μM NADPH, mean ± SD, read-out: IC50 for rEg-DHFR.

Like-named read-outs stand apart in the source and are kept apart here.

`Nc1nc(N)c2nc(CNc3ccc(C(=O)N[C@@H](CCC(=O)O)C(=O)O)cc3)cnc2n1` [Aminopterin, aminopterin] registered an IC50 in series [1] of 63.7 ± 6.76 nM. Moreover, the “effect on PSCs (protoscolex viability)” value in series [2] (after 7 days of incubation) is given as “slight effect”. In the case of `Nc1nc2c(c(=O)[nH]1)N=C(CNc1ccc(C(=O)N[C@@H](CCC(=O)O)C(=O)O)cc1)CN2` [DHF, 7,8-dihydrofolate], in series [3], the “Vmax of rEg-DHFR for substrate DHF” value worked out at 2.384 ± 0.01874 µmol/min/mg. As to `CN(Cc1cnc2nc(N)nc(N)c2n1)c1ccc(C(=O)N[C@@H](CCC(=O)O)C(=O)O)cc1` [Methotrexate, methotrexate], in series [2] (after 7 days of incubation), the “effect on PSCs (protoscolex viability)” value was “slight effect”. Consider `O=C(C1CCCCC1)N1CC(=O)N2CCc3ccccc3C2C1` (stereo not drawn) [Praziquantel], for which, in series [4], the protoscolicidal activity entry is “exhibit protoscolicidal activity”. Take `CCc1nc(N)nc(N)c1-c1ccc(Cl)cc1` [Pyrimethamine, pyrimethamine]: the IC50 in series [1] (setting [6]) came out at 860 ± 93.5 nM. In series [2] (800 μM, after 7 days of incubation, control 82.65 ± 6.11%), the “percentage vitality of PSCs” value amounted to 20.67 ± 2.49%. With `COc1cc(Cc2cnc(N)nc2N)cc(OC)c1OC` [Trimethoprim, trimethoprim], the IC50 in series [1] (setting [6]) amounted to 30800 ± 2090 nM. Also, the viability at 3000 µM in series [2] (Echinococcus granulosus, 168 h, read-out: PSCs remaining viable in culture) was found to be 38.7 ± 6.18%.

B1: rEg-DHFR (Echinococcus granulosus) (protein)
chain: MGLKRLNVIAAVANNGGIGKENKLPWKIREDMTFFSRITSTAQEGKKNAVILGRRTWLSFPPKFRPLPSRINVVVSTQLESVPEGTHLVKSFEDSLHLLESLIDSGQVDEVFIIGGHGLYKEALEQEVYPVRLYYTHIMKDFDCDTFFPSVDWERFKPIQLDTVDSDLRHSGDIEFRFAVYEKQPHPLNDH
For B1, the Km in series [5] came to 18.74 ± 0.5651 µM.

B2: human DHFR (Homo sapiens) (protein)
chain: MVGSLNCIVAVSQNMGIGKNGDLPWPPLRNEFRYFQRMTTTSSVEGKQNLVIMGKKTWFSIPEKNRPLKGRINLVLSRELKEPPQGAHFLSRSLDDALKLTEQPELANKVDMVWIVGGSSVYKEAMNHPGHLKLFVTRIMQDFESDTFFPEIDLEKYKLLPEYPGVLSDVQEEKGIKYKFEVYEKND
For B2, in series [5], the Km was found to be 14.61 ± 0.6590 µM and the Vmax was 3.370 ± 0.02327 µmol/min/mg.

For orientation: IC50 means the concentration at which inhibition is half-maximal. For orientation: Km means the concentration of substrate that gives half-maximal velocity. By Vmax is commonly meant the rate approached at saturating substrate.

Values taken from paper PMC5428777, “Molecular Characteristics and Serodiagnostic Potential of Dihydrofolate Reductase from Echinococcus granulosus” (Scientific Reports, 2017).
